Read-outs that look alike come from different tables or passages of the source.
Key:
[1] = Acute toxicity in Wistar male mice; assay type: in vivo
Experimental: Each of 10 Wistar male mice, weighing 16-18 g, was administered with 7 g/kg of taurine (as an aqueous solution of 100 ml/kg).

[2] = test system: patients with heart failure; assay type: in vivo, human patients; design: key to Severity After, Score: summed symptom/sign points; higher = worse heart failure; conditions: for Severity After, Score / Severity After, NYHA: 2 g twice daily, granules
Experimental: Twenty-four patients with heart failure were administered every day, two doses containing 2 g each of taurine as granules, and then monitored. The underlying cause of heart failure and the combined therapeutic agents (+: combined, -: not combined) for each patient are shown in Table 2. The therapeutic agents combined with taurine were standard agents which have long been used. Most of the patients had not been improved or have been even worsened under the therapeutic agents in Table 2, prior to the new therapeutic modality of this invention being used. The severity of heart failure was expressed by NYHA Function Class (I to IV, mild to severe according to New York Heart Association) and a score based on observation of clinical symptoms and signs as shown in Table 3. The presence of a symptom or sign was given the point value indicated in the right column and the values for each of the symptoms and signs were summed up for the score. An increase in the score corresponds to a worsening in the patient's heart condition. […]

guinea pigs = conditions: Dietrich & Diacono 1971; cited from earlier work
[3] = 7 g/kg as aqueous solution 100 ml/kg, 7 days observation, route not given

For `NCCS(=O)(=O)O` [taurine, 2-aminoethanesulfonic acid], the behavioral changes [1, 3] was “nor behavioral changes”, the death [1, 3] was “neither death” and the “death and behavioral changes” value ([1]; intravenous, same results = neither death nor behavioral changes) was “the same results were obtained”. The adverse reaction ([2]; human, in vivo) was “without any adverse reaction”, the “Severity After, Score” value ([2]; patient 1, week 20, before 7.5, with digitalis) was 2 and the “Severity After, NYHA” value ([2]; patient 1, week 20, before II, with digitalis) was “I”. For the same molecule, the “Severity After, Score” value ([2]; patient 2, week 4, before 6.5, with digitalis, diuretics) was 6.5, the “Severity After, Score” value ([2]; patient 3, week 8, before 13, with digitalis, diuretics) was 5 and the “Severity After, Score” value ([2]; patient 4, week 32, before 12, with digitalis, diuretics, vasodilators) was 2.5. The “Severity After, NYHA” value ([2]; patient 4, week 32, before III, with digitalis, diuretics, vasodilators) was “I”, the “Severity After, Score” value ([2]; patient 5, week 8, before 10, with digitalis, diuretics) was 2.5 and the “Severity After, Score” value ([2]; patient 6, week 8, before 5, no combined agent) was 2.5. The “Severity After, Score” value ([2]; patient 7, week 8, before 6, with digitalis, diuretics) was 3, the “Severity After, Score” value ([2]; patient 8, week 4, before 6, with digitalis, diuretics) was 5 and the “Severity After, Score” value ([2]; patient 9, week 4, before 4, no combined agent) was 3. The “Severity After, Score” value ([2]; patient 10, week 4, before 9.5, with diuretics, vasodilators) was 5, the “Severity After, Score” value ([2]; patient 11, week 6, before 9.5, with diuretics, vasodilators) was 6 and the “Severity After, Score” value ([2]; patient 12, week 2, before 3.5, no combined agent) was 3.5. For the same molecule, the “Severity After, Score” value ([2]; patient 13, week 2, before 8.5, with diuretics) was 7.5, the “Severity After, Score” value ([2]; patient 14, week 2, before 3.5, with diuretics) was 3 and the “Severity After, Score” value ([2]; patient 15, week 4, before 4.5, with diuretics) was 1. The “Severity After, Score” value ([2]; patient 16, week 4, before 5, with digitalis, diuretics, vasodilators) was 0.5, the “Severity After, Score” value ([2]; patient 17, week 4, before 9, with digitalis, diuretics) was 1 and the “Severity After, Score” value ([2]; patient 18, week 4, before 13, with digitalis, diuretics) was 9. For the same molecule, the “Severity After, Score” value ([2]; patient 19, week 4, before 5.5, with digitalis, diuretics) was 4.5, the “Severity After, Score” value ([2]; patient 20, week 2, before 5, with diuretics) was 3 and the “Severity After, Score” value ([2]; patient 21, week 4, before 9.5, combined agent ambiguous (none / diuretics)) was 4. The “Severity After, Score” value ([2]; patient 22, week 4, before 4.5, with diuretics) was 3, the “Severity After, Score” value ([2]; patient 23, week 4, before 5.5, no combined agent) was 5.5 and the “Severity After, Score” value ([2]; patient 24, week 4, before 9, with digitalis, diuretics) was 4. For the same molecule, the “improvement with combined use of taurine” value ([2]; patients not controllable or worsened under prolonged conventional agents) was “unexpectedly improved”, the “subjective symptoms and objective signs of heart failure” value ([2]; patients with heart failure, general statement) was “effectively ameliorates the subjective symptoms and objective signs of heart failure” and the positive inotropic activity (guinea pigs) was “positive inotropic activity”.

Reference: US4565830A, “Method of ameliorating the subjective symptoms and objective signs in congestive heart failure” (priority 1981, dated 1986)
